In patent EP1501797B1, “3-(SUBSTITUTED AMINO)-1H-INDOLE-2-CARBOXYLIC ACID ESTER AND 3-(SUBSTITUTED AMINO)-BENZO[B]THIOPHENE-2-CARBOXYLIC ACID ESTER DERIVATIVES AS INTERLEUKIN-4 GENE EXPRESSION INHIBITORS” (Aventis Pharmaceuticals Inc., priority 2002, dated 2003):

Key:
Assay type in all cases: cell-based
human IFN-γ promoter = assay: IFN-γ Luc assay in Jurkat cells; details: Jurkat cell line; concentration not given; 480 min
IL-5 = assay: Human primary Th2 cells, anti-CD3/anti-CD28 activated, IL-5 ELISA
Experimental: (§1) Briefly, CD4^+CD45RA^+ T cells, isolated from donor peripheral blood mononuclear cells of healthy donors, are educated in the presence of anti-CD3/CD28 antibodies and various growth factors to obtain either a Thl-like or Th2-like phenotypes as determined by the known cytokine profiles of these two cell types.
Peripheral blood mononuclear cells (PBMC) are prepared from human blood by Ficoll-Hypacque (Pharmacia). The cells are washed two times in Hanks balanced salt solution (HBSS) and counted.
Naive T cells (CD4^+/CD45RA ) are prepared by negative selection method using following antibodies and Dynabeads: anti-CD8, anti-HLA-DR, (where HLA means human leucocyte antigen) anti-CD14, anti-CD16, anti-CD19, anti-CD45RO antibodies (all from R&D Systems, 1-2 µg/ml) are added to the cells, and the cells are kept on ice for 30 min. The cells are washed two times in HBSS, and goat anti- mouse Ig-beads, (bead:target ratio, 5:1) are added. The cells and beads are slowly rotated at 4°C for 20 min. (following the protocol supplied from Dynal). The supernatant is removed and fresh goat anti-mouse Ig-beads are added to the supernatant, which is slowly rotated at 4°C for 20 min. The cells are counted and phenotypically characterized by flow cytometric analysis.
CD4^+/CD45RA^+ cells at a density of 10^6/ml in RPMI, is prepared and added to RPMI medium containing 10% Hyclone serum/ glutamine and 1-2 µg/ml anti-CD28 Ab. The cells are split in two aliquots. For Th1 cells: anti-IL-4 Ab (1-2 µg/ml), IFN-γ (1 µg/ml, or 5000 units/ml) are added to the wells. For Th2 cells: IL-4 (100-200 ng/ml), anti-IFN-γ neutralizing Ab (1-2 µg/ml), anti-IL-12 neutralizing Ab (1-2 µg/ml) are added into the wells. […] The cells are transferred to fresh wells and grown in 200 units/ml IL-2 for 2 weeks by feeding them every other day with IL-2 containing medium and splitting the cultures 1:2 or 1:3 as needed. The degree of polarization is determined by intracellular staining of cells with anti-IFN-γ and anti-IL-4 antibodies from Pharmingen, and using flow cytometry from Becton Dickinson (BD), according to manufacturers description. The cells are stimulated with PHA and alloantigens at day 14 and 28 as described below. Eight days after the second allostimulation the cells can be used for compound screening or frozen for future use. For compound testing, large quantities of Th1 and Th2 cells derived from a given donor (NYTh1 and NYTh2) were expanded and frozen as aliquots in liquid nitrogen. The cells are thawed and cultured as and when needed. The thawed cells are stimulated with alloantigen/PHA combination. The cells are used for compound screening after 8-10 days in culture.
Re-stimulation by allogeneic cells: Human PBMCs, to be used as alloantigens, are isolated from freshly drawn blood by Ficoll separation. […] Cells are counted and diluted to a final concentration of 2 x 10^6/ml in medium containing 10 µg/ml PHA and 200 units/ml IL-2.
Ninetysix well Falcon tissue culture plates (Fisher Scientific) are coated with 100 microliters per well of 10 µg/ml anti-CD3 (PharMingen) antibody in phosphate buffered saline (PBS) and stored at 4°C one day before the experiment.
On the day of assay, anti-CD3 antibody coated plates are washed with PBS once to remove all soluble anti-CD3 antibody. […] All compounds and controls are assayed in triplicates.

IFN-γ = assay: Human primary Th1 (NYTh1) cells, IFN-γ ELISA; details: data from 8 different experiments combined
Experimental: as §1
Generation of Th1/Th2 cells: Twenty four well plates are coated with 300 µL anti-CD3 Ab (10 µg/ml, in PBS 1-2 h at 37°C or overnight at 4°C), and washed two times with PBS. CD4^+/CD45RA^+ cells at a density of 10^6/ml in RPMI, is prepared and added to RPMI medium containing 10% Hyclone serum/ glutamine and 1-2 µg/ml anti-CD28 Ab. The cells are split in two aliquots. […] The degree of polarization is determined by intracellular staining of cells with anti-IFN-γ and anti-IL-4 antibodies from Pharmingen, and using flow cytometry from Becton Dickinson (BD), according to manufacturers description. […] For compound testing, large quantities of Th1 and Th2 cells derived from a given donor (NYTh1 and NYTh2) were expanded and frozen as aliquots in liquid nitrogen. […]
Re-stimulation by allogeneic cells: Human PBMCs, to be used as alloantigens, are isolated from freshly drawn blood by Ficoll separation. […] Cells are counted and diluted to a final concentration of 2 x 10^6/ml in medium containing 10 µg/ml PHA and 200 units/ml IL-2. […]

O=C(O)c1[nH]c2ccccc2c1Nc1ccncc1 [Example 28, 3-(4-Pyridinylamino)-1H-indole-2-carboxylic acid] was tested, and the “2.7-IFN-γ -Luc (% of control)” value (human IFN-γ promoter) was 100 ± 15 % of control, the activity at 0.01 µM (IL-5; Homo sapiens, 0.01 µM, 48 hr, read-out: IL-5 (% control) mean) was 102% and the activity at 0.03 µM (IL-5; Homo sapiens, 0.03 µM, 48 hr, read-out: IL-5 (% control) mean) was 85.2%. For the same molecule, the activity at 0.1 µM (IL-5; Homo sapiens, 0.1 µM, 48 hr, read-out: IL-5 (% control) mean) was 78.6%, the activity at 0.3 µM (IL-5; Homo sapiens, 0.3 µM, 48 hr, read-out: IL-5 (% control) mean) was 70.8% and the activity at 1 µM (IL-5; Homo sapiens, 1 µM, 48 hr, read-out: IL-5 (% control) mean) was 70.7%. The activity at 3 µM (IL-5; Homo sapiens, 3 µM, 48 hr, read-out: IL-5 (% control) mean) was 70.4%, the activity at 10 µM (IL-5; Homo sapiens, 10 µM, 48 hr, read-out: IL-5 (% control) mean) was 53.9% and the IC50 (IL-5; Human primary Th2 cells, combined data from 10 different experiments) was ~10 µM. For the same molecule, the IC50 (IFN-γ) was > 10 µM.
